Measured values taken from patent US20010049373A1, “Materials and methods for killing nematodes and nematode eggs” (priority 2000, published 2001).

Key:
[1] = test system: Caenorhabditis elegans; test: C. elegans L1 larvae dose-response, 5 day visual viability score (Examples 2 and 7); format: in vivo; set-up: key: Dead: only stiff L1s (no movement); Dead (L4): worms are dead, but at a later larval stage; majority of worms are L1 (based on size); majority of worms are L2 (based on size); majority of worms are L3 (based on size); majority of worms are L4 (based on size); AD: majority of worms are adult; #AD: 5 adult worms or less; B!: sterile (0-25 progeny); B: low broodsize (25-100 progeny); ˜B: moderate broodsize (100-250 progeny); <: reduced broodsize (250-500 progeny); OK: no effect (˜1000+ progeny); conditions: day 5, Table 3; for 5 Day Visual Score V6: 0.3 μM (procedure of Example 2); for 5 Day Visual Score V5: 0.9 μM (procedure of Example 2); for 5 Day Visual Score V4: 2.6 μM (procedure of Example 2); for 5 Day Visual Score V1: 70 μM (procedure of Example 2); for 5 Day Visual Score V3: 7.8 μM (procedure of Example 2); for 5 Day Visual Score V2: 23.3 μM (procedure of Example 2)
Method: Caenorhabditis elegans adults were grown on Nematode Growth Medium (NGM) until they produced eggs, then the adults were removed.
The eggs were allowed to hatch, and the L1 larvae collected. See The Neniatode Caenorhabditis elegans (1988) Cold Spring Harbor Laboratory Press. Using a Matrix Programmable Pipette, the L1s were distributed into 96-well tissue culture plates, 20 L1 in 50 μl NGM per well. Antibiotic/Antimyotic was added to each well, and 1% by weight E. coli strain HB101. The subject anthelmintic compounds were stored at 5 mM in 100% DMSO. 0.7 μl of compounds 1-31 were added to the left-most column of wells to yield a final concentration of 70 μM in 1.4% DMSO, with 1.4% DMSO only as the control. The compounds were then subjected to 5 more 3-fold dilutions from left to right to yield 6 column concentrations of 70 μM, 23.3 μM, 7.8 μM, 2.6 μM, 0.9 μM, and 0.3 μM. Plates were stored in air-tight Rubbermaid plastic boxes at 20° C. The nematodes had cleared all control wells by day 4, and nematode viability was scored by visual examination under a 100× dissecting microscope on day 5. A visual viability scoring system was used as follows:
If several classes of worms exist in a well, then all classes are scored. If adults are present, then the brood score is also recorded. Thus, “L1/L2” would mean a mixture of L1's and L2's are present in the well. “L4/#AD/B” would mean that a mixture of L4's and adults are resent in the well. The “#AD” would mean that there are 6 or less adults, and the “B” would mean that there were 100 progeny or less.
Column VI has a compound concentration of 70 μM with sequential 3-fold dilutions reported in columns V2, V3, V4, V5, and V6, respectively, such that the V6 concentration was 0.3 μM.
(§1) The nematicidal activity of anthelmintic Compositions 48-118 were determined in accordance with the procedure outlined in Example 2.

[2] = test system: Caenorhabditis elegans; test: HTS runs (initial and follow-up): mOD, % Run and visual score (Table 3); format: in vivo; set-up: key to Initial HTS Run Visual Score / Follow-up HTS Run Visual Score: Dead: only stiff L1s (no movement); Dead (L4): worms are dead, but at a later larval stage; majority of worms are L1 (based on size); majority of worms are L2 (based on size); majority of worms are L3 (based on size); majority of worms are L4 (based on size); AD: majority of worms are adult; #AD: 5 adult worms or less; B!: sterile (0-25 progeny); B: low broodsize (25-100 progeny); ˜B: moderate broodsize (100-250 progeny); <: reduced broodsize (250-500 progeny); OK: no effect (˜1000+ progeny)
Method: as §1

Row | SMILES | 5 Day Visual Score V6 [1] | 5 Day Visual Score V5 [1] | 5 Day Visual Score V4 [1] | 5 Day Visual Score V1 [1] | Follow-up HTS Run % Run [2] [%] | Follow-up HTS Run Visual Score [2] | Follow-up HTS Run mOD [2] [mOD] | Initial HTS Run % Run [2] [%] | Initial HTS Run Visual Score [2] | Initial HTS Run mOD [2] [mOD] | 5 Day Visual Score V3 [1] | 5 Day Visual Score V2 [1]
1 | COc1ccc(Oc2cc(NCc3ccc(C(F)(F)F)cc3)ncn2)cc1 [AKC 357] | OK (no effect (˜1000+ progeny)) | OK (no effect (˜1000+ progeny)) | OK (no effect (˜1000+ progeny)) | Dead | 98 | L4/AD/B! | 132 | 115 | 3AD/B | 224 |  | 
2 | Clc1cccc(CNc2cc(Oc3cccc(Cl)c3)ncn2)c1 [AKC 364] | OK (no effect (˜1000+ progeny)) | OK (no effect (˜1000+ progeny)) | < (reduced broodsize (250-500 progeny)) | Dead(L2/L3) | 108 | L4/AD/B! | 146 | 121 | 4AD/˜B | 236 | ˜B (moderate broodsize (100-250 progeny)) | 
3 | CC(C)(C)OC(=O)N1CCN(c2cc(Oc3ccc(F)cc3)ncn2)CC1 [AKC 373] | OK (no effect (˜1000+ progeny)) | OK (no effect (˜1000+ progeny)) | OK (no effect (˜1000+ progeny)) | L4 | 83 | B (low broodsize (25-100 progeny)) | 112 | 132 |  | 257 |  | 
4 | CN(Cc1ccccc1)c1cc(Oc2cccc(F)c2)ncn1 [AKC 344] | OK (no effect (˜1000+ progeny)) | OK (no effect (˜1000+ progeny)) | OK (no effect (˜1000+ progeny)) | Dead | 119 |  | 161 | 131 | L2 | 256 |  | Dead
5 | Fc1ccc(Oc2cc(NCc3ccccc3F)ncn2)cc1 [AKC 367] | OK (no effect (˜1000+ progeny)) | OK (no effect (˜1000+ progeny)) | < (reduced broodsize (250-500 progeny)) | L1 | 91 | B (low broodsize (25-100 progeny)) | 123 | 123 | 2AD/B | 239 | < (reduced broodsize (250-500 progeny)) | < (reduced broodsize (250-500 progeny))
6 | Fc1ccc(F)c(CNc2cc(Oc3cccc(Cl)c3)ncn2)c1 [AKC 354] | < (reduced broodsize (250-500 progeny)) | OK (no effect (˜1000+ progeny)) | < (reduced broodsize (250-500 progeny)) | Dead | 108 | B (low broodsize (25-100 progeny)) | 146 | 137 | 1AD/B | 267 | #AD/˜B | 
7 | c1ccc2c(c1)CCN(c1cc(Oc3ccc4ccccc4c3)ncn1)C2 [AKC 342] | OK (no effect (˜1000+ progeny)) | OK (no effect (˜1000+ progeny)) | ˜B (moderate broodsize (100-250 progeny)) |  | 92 | B!-Healthy | 124 | 106 | L4/AD/B! | 207 |  | 
8 | FC(F)(F)c1ccc(CNc2cc(Oc3ccccc3Cl)ncn2)cc1 [AKC 360] | OK (no effect (˜1000+ progeny)) | OK (no effect (˜1000+ progeny)) | OK (no effect (˜1000+ progeny)) | Dead | 112 | L4/AD/B! | 151 | 139 | 1AD/B!-No P | 272 | OK (no effect (˜1000+ progeny)) | Dead
9 | Fc1ccc(Oc2cc(N3CCc4ccccc4C3)ncn2)cc1 [AKC 345] | OK (no effect (˜1000+ progeny)) | OK (no effect (˜1000+ progeny)) | OK (no effect (˜1000+ progeny)) | L1 | 114 |  | 154 | 135 | L1 | 264 | L4 | L1
10 | CCC(C)Nc1cc(Oc2ccc3oc4ccccc4c3c2)ncn1 (stereo not drawn) [AKC 349] | OK (no effect (˜1000+ progeny)) | OK (no effect (˜1000+ progeny)) | OK (no effect (˜1000+ progeny)) |  | 103 | B (low broodsize (25-100 progeny)) | 139 | 127 | 2AD/B! | 247 | #AD/˜B | OK (no effect (˜1000+ progeny))
11 | CC(C)(C)OC(=O)NCc1ccc(-c2cccc(C(=O)Nc3ccc(S(N)(=O)=O)cc3)c2)cc1 [AKC 390] | OK (no effect (˜1000+ progeny)) | OK (no effect (˜1000+ progeny)) | OK (no effect (˜1000+ progeny)) | L1 | 110 | L4 | 148 | 133 | B! (sterile (0-25 progeny)) | 260 | OK (no effect (˜1000+ progeny)) | 
12 | CCC(NC(=O)Nc1ccc(NC(=O)C2CCCO2)cc1)c1cccc(S(N)(=O)=O)c1 (stereo not drawn) [AKC 405] | OK (no effect (˜1000+ progeny)) | OK (no effect (˜1000+ progeny)) | OK (no effect (˜1000+ progeny)) | L1 | 120 | 1AD/B! | 162 | 141 | 4AD/B | 274 | #AD/˜B | L1
13 | CCCCCCCCCCCCNc1cc(Oc2ccccc2OC)ncn1 [AKC 398] | OK (no effect (˜1000+ progeny)) | < (reduced broodsize (250-500 progeny)) | OK (no effect (˜1000+ progeny)) | Dead | 93 | Dead | 126 | 118 | Dead | 231 | #AD/˜B | Dead
